Reference: ChEMBL document CHEMBL1148305, “5-substituted derivatives of 6-halogeno-3-((2-(S)-azetidinyl)methoxy)pyridine and 6-halogeno-3-((2-(S)-pyrrolidinyl)methoxy)pyridine with low picomolar affinity for alpha4beta2 nicotinic acetylcholine receptor and wide range of lipophilicity: potential probes for imaging with positron emission …” (J Med Chem, 2004)
pKi: −log10 of the molar value.

Target: Neuronal acetylcholine receptor; alpha4/beta2 (Rattus norvegicus, UniProt P09483+P12390)
Assay: Ability of compound to compete with 50 pM of 5-[125I]iodo-A-85,380 for receptor binding sites in rat brain membranes at room temperature
Assay type: cell membranes

Row | Compound | pKi
1 | Fc1ccnc[n+]1-c1cc(OC[C@@H]2CCN2)cnc1Cl | 11.06
2 | Fc1cc(/C=C/c2cc(OC[C@@H]3CCCN3)cnc2Cl)ccn1 | 11.03
3 | Clc1ncc(OC[C@@H]2CCN2)cc1-c1cccnc1 | 11.09
4 | Clc1ncc(OC[C@@H]2CCN2)cc1/C=C/c1ccnc(Br)c1 | 11.28
5 | Clc1ccc(-c2cc(OC[C@@H]3CCN3)cnc2Cl)cn1 | 11.35
6 | Clc1ccc(OC[C@@H]2CCN2)cn1 | 10.47
7 | Fc1cc(/C=C/c2cc(OC[C@@H]3CCN3)cnc2Cl)ccn1 | 11.51
8 | Clc1ncc(OC[C@@H]2CCN2)cc1-c1ccnc(Br)c1 | 11.48
9 | Clc1ncc(OC[C@@H]2CCCN2)cc1/C=C/c1ccnc(Br)c1 | 11.25
10 | Fc1cc(-c2cc(OC[C@@H]3CCN3)cnc2Cl)ccn1 | 11.32
11 | Brc1ncc(OC[C@@H]2CCN2)cc1-c1cccnc1 | 11.18
12 | Fc1ncc(OC[C@@H]2CCN2)cc1-c1cccnc1 | 10.18
13 | Clc1ncc(OC[C@@H]2CCN2)cc1/C=C/c1ccncc1 | 11.05
14 | Fc1ccc(-c2cc(OC[C@@H]3CCN3)cnc2Cl)cn1 | 11.31
15 | Ic1ncc(OC[C@@H]2CCN2)cc1-c1cccnc1 | 10.93
16 | Fc1ncc(/C=C/c2cc(OC[C@@H]3CCN3)cnc2Cl)cc1Br | 11.11
17 | Fc1ccc(-c2cc(OC[C@@H]3CCCN3)cnc2Cl)cn1 | 10.75
18 | Clc1ncc(OC[C@@H]2CCCN2)cc1-c1ccc(Br)nc1 | 10.71
19 | Fc1ncc(-c2cc(OC[C@@H]3CCN3)cnc2Cl)cc1Br | 11.40
20 | Clc1ncc(OC[C@@H]2CCN2)cc1-c1ccc(Br)nc1 | 11.37
